# Measurements from patent US8445684B2, “Nicotinic acetylcholine receptor ligands and the uses thereof” (PsycoGenics Inc., priority 2008, dated 2013).
# Several values for one entry are separate records, joined by “and”; a condition that tells them apart may be missing. Identical values can stand only once. Marks after values point to notes of the source that are not given here.
# What was measured:
# male Balb/cJ mice = test: Forced swim test in mice; type: in vivo
# Procedure: Subjects. The subjects were male Balb/cJ mice obtained from Jackson Laboratory, Bar Harbor, Me. Mice were housed 4 per cage under controlled conditions of temperature, relative humidity and light-dark cycle with free access to food and water.
# Procedures. […] Mice were individually placed into clear glass cylinders (i.e., 15 cm tall×10 cm wide, 1 L beakers) containing 23±1° C. water 12 cm deep (approximately 800 mL). The time the animal spent immobile was recorded over a 6 min trial. Immobility was described as the postural position of floating in the water.
# Drugs. […] The mice were injected intraperitoneally (i.p.) 30 minutes before the start of the test. In another set of experiments, the test compounds were administered orally (p.o.) 30 minutes before the start of the test.
# Statistics. The length of time spent floating was analyzed by Analysis of Variance (ANOVA) with dose of drug as the between-subject factor and time spent immobile across the 6 min test as the dependent variable. Post-hoc comparisons between the treatment groups and control group were made using Fisher's PLSD test. A significance level of 5% was used throughout.
# α2β2 nicotinic receptor = target: T1, α2β2 nicotinic receptor (Rattus norvegicus, UniProt P12389+P12390); test: biochemical; type: binding
# T1 construct: expressed in transfected cells; host or cells: stably transfected cell lines (e.g., HEK293, COS, CHO, NIH3T3)
# T1 sequence (P12390 25-500): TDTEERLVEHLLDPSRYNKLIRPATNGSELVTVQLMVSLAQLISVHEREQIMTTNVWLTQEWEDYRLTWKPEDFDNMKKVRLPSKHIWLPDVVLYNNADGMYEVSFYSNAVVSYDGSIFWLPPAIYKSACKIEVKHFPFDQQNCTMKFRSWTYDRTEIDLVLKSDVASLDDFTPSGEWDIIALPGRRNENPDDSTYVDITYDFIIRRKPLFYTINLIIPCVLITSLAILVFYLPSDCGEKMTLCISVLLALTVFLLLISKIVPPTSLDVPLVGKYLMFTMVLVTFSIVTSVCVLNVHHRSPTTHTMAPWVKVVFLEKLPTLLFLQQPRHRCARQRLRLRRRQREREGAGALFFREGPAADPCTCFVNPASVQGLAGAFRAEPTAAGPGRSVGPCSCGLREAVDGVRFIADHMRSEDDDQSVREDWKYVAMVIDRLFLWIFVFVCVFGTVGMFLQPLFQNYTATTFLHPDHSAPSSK
# T1 sequence (P12389 28-511): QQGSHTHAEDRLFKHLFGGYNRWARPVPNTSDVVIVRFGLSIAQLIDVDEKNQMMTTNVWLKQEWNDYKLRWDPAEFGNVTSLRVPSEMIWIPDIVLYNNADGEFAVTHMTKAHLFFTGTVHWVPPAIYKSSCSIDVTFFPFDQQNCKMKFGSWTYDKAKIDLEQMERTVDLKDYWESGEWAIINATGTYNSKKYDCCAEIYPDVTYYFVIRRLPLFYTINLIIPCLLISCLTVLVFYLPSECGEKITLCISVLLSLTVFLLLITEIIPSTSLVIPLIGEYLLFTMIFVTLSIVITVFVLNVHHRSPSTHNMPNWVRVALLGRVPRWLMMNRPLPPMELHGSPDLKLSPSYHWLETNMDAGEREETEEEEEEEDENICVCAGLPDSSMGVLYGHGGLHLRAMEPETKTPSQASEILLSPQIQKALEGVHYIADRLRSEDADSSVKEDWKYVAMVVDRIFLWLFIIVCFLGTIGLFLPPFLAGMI
# Procedure: (§1) All binding assays were performed according to procedures set forth in the University of North Carolina at Chapel Hill National Institute of Mental Health Psychoactive Drug Screening Program Assay Protocol Book (pp. 50-54; PI: Bryan L. Roth MD, PhD).
# (§2) Nicotinic receptors: α2β2, α2β4, α3β2, α3β4, α4β2, α4β4, endogenous α4β2. Assay buffer: 50 mM Tris-HCl, pH 7.4. Membrane fraction source: Stably transfected cell lines (e.g., HEK293, COS, CHO, NIH3T3) (α2β2, α2β4, α3β2, α3β4, α4β2, α4β4) or rat forebrain (α4β2).
# (§3) Aliquots (50 μl) of radioligand were dispensed into the wells of a 96-well plate containing 100 μl of assay buffer. Then, duplicate 50-μl aliquots of the test and reference compound dilutions were added.
# (§4) Finally, crude membrane fractions of cells expressing recombinant target (prepared from 10-cm plates by harvesting PBS-rinsed monolayers, resuspending and lysing in chilled, hypotonic 50 mM Tris-HCl, pH 7.4, centrifuging at 20,000×g, decanting the supernatant and storing at −80° C.; typically, one 10-cm plate provides sufficient material for 24 wells) were resuspended in 3 ml of chilled assay buffer and homogenized by several passages through a 26 gauge needle, then 50 μl were dispensed into each well.
# (§5) The 250-μl reactions were incubated at room temperature and shielded from light (to prevent photolysis of light-sensitive ligands) for 4 hours, then harvested by rapid filtration onto Whatman GF/B glass fiber filters pre-soaked with 0.5% polyethyleneimine using a 96-well Brandel harvester. Four rapid 500-μl washes were performed with chilled Standard Binding Buffer to reduce non-specific binding. Filters were placed in 6-ml scintillation tubes and allowed to dry overnight. The next day, 4 ml of EcoScint scintillation cocktail (National Diagnostics) were added to each tube. The tubes were capped, labeled, and counted by liquid scintillation counting.
# (§6) Raw data (dpm) representing total radioligand binding (i.e., specific+non-specific binding) were plotted as a function of the logarithm of the molar concentration of the competitor (i.e., test or reference compound).
# α2β4 nicotinic receptor = target: T2, α2β4 nicotinic receptor (Rattus norvegicus, UniProt P12389+P12392); test: biochemical; type: binding
# T2 construct: expressed in transfected cells; host or cells: stably transfected cell lines (e.g., HEK293, COS, CHO, NIH3T3)
# T2 sequence (P12392 21-495): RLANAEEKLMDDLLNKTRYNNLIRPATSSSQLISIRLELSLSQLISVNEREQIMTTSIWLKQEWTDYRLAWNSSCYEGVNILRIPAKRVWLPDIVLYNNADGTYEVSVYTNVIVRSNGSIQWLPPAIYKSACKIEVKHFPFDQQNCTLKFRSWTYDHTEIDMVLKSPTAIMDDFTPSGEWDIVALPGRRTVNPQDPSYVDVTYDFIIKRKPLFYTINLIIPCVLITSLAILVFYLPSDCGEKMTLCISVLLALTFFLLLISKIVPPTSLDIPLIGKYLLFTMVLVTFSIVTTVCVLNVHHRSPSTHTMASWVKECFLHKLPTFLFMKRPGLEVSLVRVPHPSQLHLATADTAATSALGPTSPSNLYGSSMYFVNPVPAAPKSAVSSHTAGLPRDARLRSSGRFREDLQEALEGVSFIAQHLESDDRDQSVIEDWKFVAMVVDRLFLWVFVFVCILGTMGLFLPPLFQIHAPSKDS
# T2 sequence (P12389 28-511): as the sequence (P12389 28-511) above
# Procedure: as §1, §2, §3, §4, §5, §6
# α3β2 nicotinic receptor = target: T3, α3β2 nicotinic receptor (Rattus norvegicus, UniProt P04757+P12390); test: biochemical; type: binding
# T3 construct: expressed in transfected cells; host or cells: stably transfected cell lines (e.g., HEK293, COS, CHO, NIH3T3)
# T3 sequence (P12390 25-500): as the sequence (P12390 25-500) above
# T3 sequence (P04757 26-499): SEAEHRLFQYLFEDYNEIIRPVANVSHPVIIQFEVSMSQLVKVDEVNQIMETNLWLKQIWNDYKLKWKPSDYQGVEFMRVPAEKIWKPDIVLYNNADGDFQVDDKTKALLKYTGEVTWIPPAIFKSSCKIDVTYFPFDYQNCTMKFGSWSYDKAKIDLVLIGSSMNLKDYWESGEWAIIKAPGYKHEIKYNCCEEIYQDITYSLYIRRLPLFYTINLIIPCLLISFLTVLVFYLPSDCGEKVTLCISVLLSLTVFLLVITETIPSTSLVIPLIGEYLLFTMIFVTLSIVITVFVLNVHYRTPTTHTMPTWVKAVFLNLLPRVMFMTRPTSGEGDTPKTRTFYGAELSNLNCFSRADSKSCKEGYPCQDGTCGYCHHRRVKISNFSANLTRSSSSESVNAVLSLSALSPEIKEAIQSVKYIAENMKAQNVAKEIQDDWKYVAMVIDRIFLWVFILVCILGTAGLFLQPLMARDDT
# Procedure: as §1, §2, §3, §4, §5, §6
# α3β4 nicotinic receptor = target: T4, α3β4 nicotinic receptor (Rattus norvegicus, UniProt P04757+P12392); test: biochemical; type: binding
# T4 construct: expressed in transfected cells; host or cells: stably transfected cell lines (e.g., HEK293, COS, CHO, NIH3T3)
# T4 sequence (P04757 26-499): as above
# T4 sequence (P12392 21-495): as the sequence (P12392 21-495) above
# Procedure: as §1, §2, §3, §4, §5, §6
# α4β2 nicotinic receptor = target: T5, α4β2 nicotinic receptor (Rattus norvegicus, UniProt P09483+P12390); test: biochemical; type: binding
# T5 construct: expressed in transfected cells; host or cells: stably transfected cell lines (e.g., HEK293, COS, CHO, NIH3T3)
# T5 sequence (P09483 31-630): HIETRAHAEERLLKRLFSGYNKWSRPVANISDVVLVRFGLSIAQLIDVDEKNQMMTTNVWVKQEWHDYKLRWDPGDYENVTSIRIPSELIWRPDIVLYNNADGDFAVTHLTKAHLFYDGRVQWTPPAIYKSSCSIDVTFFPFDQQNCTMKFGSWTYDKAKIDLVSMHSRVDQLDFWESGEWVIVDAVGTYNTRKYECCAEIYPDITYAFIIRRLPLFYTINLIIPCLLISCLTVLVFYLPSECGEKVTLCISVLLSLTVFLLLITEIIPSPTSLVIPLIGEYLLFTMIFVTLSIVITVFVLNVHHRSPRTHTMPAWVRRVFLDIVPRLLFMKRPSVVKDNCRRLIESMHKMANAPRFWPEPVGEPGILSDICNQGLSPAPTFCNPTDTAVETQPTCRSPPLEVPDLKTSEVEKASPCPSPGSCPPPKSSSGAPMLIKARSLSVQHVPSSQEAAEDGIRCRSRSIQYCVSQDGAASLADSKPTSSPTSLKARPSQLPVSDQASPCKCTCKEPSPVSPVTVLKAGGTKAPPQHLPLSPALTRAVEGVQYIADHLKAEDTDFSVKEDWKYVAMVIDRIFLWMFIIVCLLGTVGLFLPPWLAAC
# T5 sequence (P12390 25-500): as the sequence (P12390 25-500) above
# Procedure: as §1, §2, §3, §4, §5, §6
# [1] = target: T6, α4β2* (endogenous α4β2, rat forebrain) (Rattus norvegicus, UniProt P09483+P12390); test: biochemical; type: binding
# T6 construct: from tissue; host or cells: rat forebrain
# T6 sequence (P09483 31-630): as the sequence (P09483 31-630) above
# T6 sequence (P12390 25-500): as the sequence (P12390 25-500) above
# Procedure: as §1, §2, §3, §4, §5, §6
# α4β4 nicotinic receptor = target: T7, α4β4 nicotinic receptor (Rattus norvegicus, UniProt P09483+P12392); test: biochemical; type: binding
# T7 construct: expressed in transfected cells; host or cells: stably transfected cell lines (e.g., HEK293, COS, CHO, NIH3T3)
# T7 sequence (P09483 31-630): as the sequence (P09483 31-630) above
# T7 sequence (P12392 21-495): as the sequence (P12392 21-495) above
# Procedure: as §1, §2, §3, §4, §5, §6
Compound,"effect in the forced swim test as indicated by a reduction in immobility time (male Balb/cJ mice; mouse, in vivo, ip)",Ki (α2β2 nicotinic receptor) [nM],Ki (α2β4 nicotinic receptor) [nM],Ki (α3β2 nicotinic receptor) [nM],Ki (α4β2 nicotinic receptor) [nM],Ki [1] [nM],further results
"OCCCc1cccc(-c2cncc(OC[C@@H]3CCN3)c2)c1 [Example 15c, 3-[3-[5-[(2(S)-Azetidinyl)methoxy]-3-pyridyl]phenyl]-1-propanol]",positive effects,,,,,,"reduction in immobility time compared to vehicle (male Balb/cJ mice; mouse, in vivo): 24.5 s; Average Immobility Time (male Balb/cJ mice; mouse, in vivo, ip, 5 mg/kg): 110.6 s; Average Immobility Time (male Balb/cJ mice; mouse, in vivo, ip, 10 mg/kg): 105.1** seconds and 85.3** seconds; Average Immobility Time (male Balb/cJ mice; mouse, in vivo, ip, 20 mg/kg): 49.7** seconds"
FCC[C@H]1C[C@@H]1c1cncc(OC[C@@H]2CCN2)c1,,6.4,660,34,1,11,Ki (α3β4 nicotinic receptor): > 10000 nM; Ki (α4β4 nicotinic receptor): 1300 nM
"OCC[C@H]1C[C@@H]1c1cncc(OC[C@@H]2CCN2)c1 [Example 2, 2-[(1R,2S)-2-[5-[(2(S)-Azetidinyl)methoxy]-3-pyridyl]cyclopropyl]ethanol]",positive effects,,,,,,
OCC[C@H]1C[C@@H]1c1cncc(OC[C@@H]2CCN2)c1 [drawing 715],,0.9,62,5.1,0.3,1.2,Ki (α3β4 nicotinic receptor): 640 nM
OCCCC[C@H]1C[C@@H]1c1cncc(OC[C@@H]2CCN2)c1,,0.6,120,6.5,0.5,1.4,Ki (α4β4 nicotinic receptor): 240 nM
"CN[C@H]1CC[C@@H](c2ccc(Cl)c(Cl)c2)c2ccccc21 [Sertraline, sertraline, reference compound]",,,,,,,"Average Immobility Time (male Balb/cJ mice; Table 2, 20 mg/kg i.p., 30 min before test, 6 min trial, vehicle 126.3, ** = significantly different from vehicle): 11.9** seconds"
"OCCCCC#Cc1cncc(OC[C@@H]2CCN2)c1 [AMOP-H-OH, reference compound]",positive effects,,,,,,
